Reference: patent US20170318812A1, “Plant and Crop Growth Regulating/Biostimulant Formulations and Methods of Use” (Arysta Lifescience North America, LLC, priority 2014, published 2017)
Values joined by “and” are separate entries in the source; they are usually repeats but may differ in a detail not shown here. Equal values may be shown once.

What was measured:
ZEAMX Zea mays (Corn) = test: Ipfencarbazone biostimulant effect, early post emergence foliar application, greenhouse pots, plant height: corn; format: in vivo; conditions: ZEAMX AG7098PRO2
Source text: (§1) The original objective of this Example was to evaluate the herbicidal effect of ipfencarbazone when applied as a post emergent treatment to a range of selected crops and weeds. Unexpectedly, crop plant growth stimulation was observed. The actual species of weeds and crops are listed in the summary data tabulated below and in FIGS. 1-13. By convention each plant species has a Bayer code (5-letter name) with the scientific name for the plant referenced in FIGS. 1-13. In each Figure, each tray contains the same configuration of weeds and/or crops. In each Figure there is one replication of each treatment (six treatments in total). The top three photographs in each Figure show the Bayer Codes and bottom three photographs are aligned with the top three facilitating viewing of the same plant species. Throughout the Examples various abbreviations as conventional shorthand notation and will be appreciated by those skilled in the art. Some exemplary abbreviations include, “CV”=Co-efficient of Variation,” “LSD”=Least Significant Difference” (G/L (gram per L) AND GA/L (gram of active ingredient per L); “SC”=suspension concentrate formulation. The diluent in all treatments was water. By convention factors that are identical in all treatments (e.g. diluent and surfactant) are not listed in each treatment.
(§2) Methods: The indicated size pots (see Tables below) are filled with a specific soil, the soil properties being indicated below. The referenced crops and weeds are planted by hand in each pot. […] The experiments include six treatments each replicated three times on each crop/weed species. At a specific time after emergence each crop and weed species was treated with ipfencarbazone plus a non-ionic surfactant (NIS). In the present Example, the surfactant employed was ENERGIC™ (non-ionic surfactant). The application timing is indicated in each of the Tables (1 or 2 leaf stage) below. Ipfencarbazone plus surfactant was diluted in water and applied at a rate equivalent to about 250 L/ha. Ipfencarbazone was applied using a track sprayer. After treatment, the pots were randomized in a greenhouse. At each assessment (indicated by “days after treatment” or DAT) the height of each plant was measured. The letters next to each mean indicate the level of statistical significance.
(§3) Replications: 3, Untreated treatments: 1, Design: Randomized Complete Block (RCB), Treatment units: Treated ‘Plot’ experimental unit size, Dry Form. Unit: %, Treated ‘Plot’ experimental unit size Width: 1 meter, Treated ‘Plot’ experimental unit size Length: 1.4 meters, Application volume: 250 L/ha, Mix size: 0.15 liters, […]

[1] = tested on: GLXMA Glycine max (Soybean); test: Ipfencarbazone biostimulant effect, early post emergence foliar application, greenhouse pots, plant height: soybean; format: in vivo; conditions: GLXMA BMXPOTENCIA
Source text: as §1, §2, §3

[2] = 62.5 g ai/ha, 15 DA-A, plots 102, 205, 302
[3] = 125 g ai/ha, 15 DA-A, plots 103, 206, 305
[4] = 250 g ai/ha, 15 DA-A, plots 104, 201, 306
[5] = 500 g ai/ha, 15 DA-A, plots 105, 202, 301

## CC(C)N(C(=O)n1cnn(-c2ccc(Cl)cc2Cl)c1=O)c1ccc(F)cc1F [ARY-0572-001, ipfencarbazone]
ZEAMX Zea mays (Corn); 62.5 g ai/ha, 15 DA-A
  HEIGHT, percent of untreated check (APoC): (146.7%)
  HEIGHT, treatment mean: 56.1 a cm and 56.1 cm
ZEAMX Zea mays (Corn); [2]
  HEIGHT, single plots (replicates): 52.3 cm and 64.8 cm and 51.0 cm
ZEAMX Zea mays (Corn); 62.5 g ai/ha, 28 DA-A
  HEIGHT, percent of untreated check (APoC): (175.8%)
  HEIGHT, treatment mean: 89.4 a cm and 89.4 cm
ZEAMX Zea mays (Corn); 62.5 g ai/ha, 28 DA-A, plots 102, 205, 302
  HEIGHT, single plots (replicates): 71.3 cm and 106.7 cm and 90.3 cm
ZEAMX Zea mays (Corn); 125 g ai/ha, 15 DA-A
  HEIGHT, percent of untreated check (APoC): (156.4%)
  HEIGHT, treatment mean: 59.8 a cm and 59.8 cm
ZEAMX Zea mays (Corn); [3]
  HEIGHT, single plots (replicates): 62.7 cm and 59.0 cm and 57.7 cm
ZEAMX Zea mays (Corn); 125 g ai/ha, 28 DA-A
  HEIGHT, percent of untreated check (APoC): (168.8%)
  HEIGHT, treatment mean: 85.9 a cm and 85.9 cm
ZEAMX Zea mays (Corn); 125 g ai/ha, 28 DA-A, plots 103, 206, 305
  HEIGHT, single plots (replicates): 103.0 cm and 82.0 cm and 72.7 cm
ZEAMX Zea mays (Corn); 250 g ai/ha, 15 DA-A
  HEIGHT, percent of untreated check (APoC): (155.4%)
  HEIGHT, treatment mean: 59.4 a cm and 59.4 cm
ZEAMX Zea mays (Corn); [4]
  HEIGHT, single plots (replicates): 56.5 cm and 61.0 cm and 60.7 cm
ZEAMX Zea mays (Corn); 250 g ai/ha, 28 DA-A
  HEIGHT, percent of untreated check (APoC): (208.3%)
  HEIGHT, treatment mean: 106.0 a cm and 106.0 cm
ZEAMX Zea mays (Corn); 250 g ai/ha, 28 DA-A, plots 104, 201, 306
  HEIGHT, single plots (replicates): 108.3 cm and 104.0 cm and 105.7 cm
ZEAMX Zea mays (Corn); 500 g ai/ha, 15 DA-A
  HEIGHT, percent of untreated check (APoC): (161.9%)
  HEIGHT, treatment mean: 61.9 a cm and 61.9 cm
ZEAMX Zea mays (Corn); [5]
  HEIGHT, single plots (replicates): 58.7 cm and 67.0 cm and 60.0 cm
ZEAMX Zea mays (Corn); 500 g ai/ha, 28 DA-A
  HEIGHT, percent of untreated check (APoC): (205.9%)
  HEIGHT, treatment mean: 104.8 a cm and 104.8 cm
ZEAMX Zea mays (Corn); 500 g ai/ha, 28 DA-A, plots 105, 202, 301
  HEIGHT, single plots (replicates): 101.7 cm and 107.7 cm and 105.0 cm
ZEAMX Zea mays (Corn); 1000 g ai/ha, 15 DA-A
  HEIGHT, percent of untreated check (APoC): (98.3%)
  HEIGHT, treatment mean: 37.6 b cm and 37.6 cm
ZEAMX Zea mays (Corn); 1000 g ai/ha, 15 DA-A, plots 106, 203, 304
  HEIGHT, single plots (replicates): 48.7 cm and 34.7 cm and 29.3 cm
ZEAMX Zea mays (Corn); 1000 g ai/ha, 28 DA-A
  HEIGHT, percent of untreated check (APoC): (117.9%)
  HEIGHT, treatment mean: 60.0 b cm and 60.0 cm
ZEAMX Zea mays (Corn); 1000 g ai/ha, 28 DA-A, plots 106, 203, 304
  HEIGHT, single plots (replicates): 91.7 cm and 44.0 cm and 44.3 cm
[1]; 62.5 g ai/ha, 15 DA-A
  HEIGHT, percent of untreated check (APoC): (113.4%)
  HEIGHT, treatment mean: 15.0 a cm and 15.0 cm
[1]; [2]
  HEIGHT, single plots (replicates): 15.3 cm and 14.8 cm (2×)
[1]; 62.5 g ai/ha, 28 DA-A
  HEIGHT, percent of untreated check (APoC): (146.3%)
  HEIGHT, treatment mean: 30.6a cm
[1]; 125 g ai/ha, 15 DA-A
  HEIGHT, percent of untreated check (APoC): (84.9%)
  HEIGHT, treatment mean: 11.2 abc cm and 11.2 cm
[1]; [3]
  HEIGHT, single plots (replicates): 6.2 cm and 13.5 cm and 14.0 cm
[1]; 125 g ai/ha, 28 DA-A
  HEIGHT, percent of untreated check (APoC): (113.8%)
  HEIGHT, treatment mean: 23.8 ab cm
[1]; 250 g ai/ha, 15 DA-A
  HEIGHT, percent of untreated check (APoC): (71.8%)
  HEIGHT, treatment mean: 9.5 bcd cm and 9.5 cm
[1]; [4]
  HEIGHT, single plots (replicates): 8.3 cm and 10.8 cm and 9.3 cm
[1]; 250 g ai/ha, 28 DA-A
  HEIGHT, percent of untreated check (APoC): (87.8%)
  HEIGHT, treatment mean: 18.3 bc cm
[1]; 500 g ai/ha, 15 DA-A
  HEIGHT, percent of untreated check (APoC): (45.4%)
  HEIGHT, treatment mean: 6.0 d cm and 6.0 cm
[1]; [5]
  HEIGHT, single plots (replicates): 8.0 cm and 1.3 cm and 8.7 cm
[1]; 500 g ai/ha, 28 DA-A
  HEIGHT, percent of untreated check (APoC): (63.3%)
  HEIGHT, treatment mean: 13.2 c cm
[1]; 1000 g ai/ha, 15 DA-A
  HEIGHT, percent of untreated check (APoC): (65.5%)
  HEIGHT, treatment mean: 8.7 cd cm and 8.7 cm
